{"source": "patent US9695155B2", "about": "“Herbicidal substituted pyrimidinyloxy benzene compounds” (E. I. DU PONT DE NEMOURS AND COMPANY, priority 2013, dated 2017)", "key": {"[1]": {"tested_on": "pigweed", "assay": "Test A preemergence", "assay_type": "in vivo, Amaranthus retroflexus", "conditions": "Amaranthus retroflexus, pre-emergence, 240 h, read-out: Pigweed plant response rating", "procedure,_shortened": "(§1)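 Visual injury scored 0–100 (100 = complete control) against untreated controls about 10 days after treatment in a greenhouse. Test chemicals, formulated with surfactant in non-phytotoxic solvent, were sprayed on soil preemergence or on 2-10 cm, one- to two-leaf plants postemergence.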"}, "[2]": {"tested_on": "wheat", "assay": "Test A preemergence", "assay_type": "in vivo, Triticum aestivum", "conditions": "Triticum aestivum, pre-emergence, 240 h, read-out: Wheat plant response rating", "procedure,_shortened": "as §1"}, "[3]": {"tested_on": "large (Lg) crabgrass", "assay": "Test A postemergence", "assay_type": "in vivo, Digitaria sanguinalis", "conditions": "Digitaria sanguinalis, post-emergence, 240 h", "procedure,_shortened": "as §1"}, "[4]": {"tested_on": "giant foxtail", "assay": "Test A postemergence", "assay_type": "in vivo, Setaria faberii", "conditions": "Setaria faberi, post-emergence, 240 h", "procedure,_shortened": "as §1"}, "[5]": {"tested_on": "velvetleaf", "assay": "Test A postemergence", "assay_type": "in vivo, Abutilon theophrasti", "conditions": "Abutilon theophrasti, post-emergence, 240 h", "procedure,_shortened": "as §1"}, "[6]": {"tested_on": "corn", "assay": "Test A postemergence", "assay_type": "in vivo, Zea mays", "conditions": "Zea mays, post-emergence, 240 h", "procedure,_shortened": "as §1"}, "[7]": {"tested_on": "lambsquarters", "assay": "Test C preemergence", "assay_type": "in vivo, Chenopodium album", "conditions": "Chenopodium album, pre-emergence", "procedure,_shortened": "(§2)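 Injury was assessed visually against controls 13 to 15 days after application, with 0 meaning no effect and 100 full control; missing entries are shown as a dash. Preemergence sprays hit seeded loam–sand soil, postemergence sprays hit 1- to 4-leaf plants.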"}, "[8]": {"tested_on": "yellow nutsedge", "assay": "Test C preemergence", "assay_type": "in vivo, Cyperus esculentus", "conditions": "Cyperus, pre-emergence", "procedure,_shortened": "as §2"}, "[9]": {"tested_on": "pigweed", "assay": "Test C preemergence", "assay_type": "in vivo, Amaranthus retroflexus", "conditions": "Amaranthus retroflexus, pre-emergence", "procedure,_shortened": "as §2"}, "[10]": {"tested_on": "ragweed", "assay": "Test C preemergence", "assay_type": "in vivo, Ambrosia elatior", "conditions": "Ambrosia artemisiifolia, pre-emergence", "procedure,_shortened": "as §2"}, "[11]": {"tested_on": "galium", "assay": "Test C postemergence", "assay_type": "in vivo, Galium aparine", "conditions": "Galium, post-emergence", "procedure,_shortened": "as §2"}, "[12]": {"tested_on": "lambsquarters", "assay": "Test C postemergence", "assay_type": "in vivo, Chenopodium album", "conditions": "Chenopodium album, post-emergence", "procedure,_shortened": "as §2"}, "[13]": {"tested_on": "morningglory", "assay": "Test C postemergence", "assay_type": "in vivo, Ipomoea coccinea", "conditions": "Ipomoea, post-emergence", "procedure,_shortened": "as §2"}, "[14]": {"tested_on": "kochia", "assay": "Test C postemergence", "assay_type": "in vivo, Kochia scoparia", "conditions": "Bassia scoparia, post-emergence", "procedure,_shortened": "as §2"}, "[15]": {"conditions": "125 g ai/ha, 0 to 100 scale where 0 is no effect and 100 is complete control"}, "[16]": {"conditions": "500 g ai/ha, 0 to 100 scale, 0 no effect, 100 complete control, approx. 10 days"}}}
{"smiles": "Clc1cnc(Oc2ccccc2-n2cc(Br)cn2)nc1", "note": "[Compound 7, 2-[2-(4-bromo-1H-pyrazol-1-yl)phenoxy]-5-chloropyrimidine]", "values": [{"measurement": "pest or weed control at 125 g/ha", "setting": "[1]; [15]", "value": 90, "unit": "%"}, {"measurement": "pest or weed control at 500 g/ha", "setting": "[1]; [16]", "value": 100, "unit": "%"}, {"measurement": "plant injury at 125 g/ha", "setting": "[2]; [15]", "value": 0, "unit": "%"}, {"measurement": "plant injury at 500 g/ha", "setting": "[2]; [16]", "value": 20, "unit": "%"}, {"measurement": "pest or weed control at 125 g/ha", "setting": "[3]; 125 g ai/ha, 0 to 100 scale where 0 is no effect and 100 is complete control, read-out: Plant response rating, Crabgrass, Large", "value": 80, "unit": "%"}, {"measurement": "pest or weed control at 500 g/ha", "setting": "[3]; 500 g ai/ha, 0 to 100 scale, 0 no effect, 100 complete control, read-out: Plant response rating Crabgrass, Large", "value": 100, "unit": "%"}, {"measurement": "pest or weed control at 125 g/ha", "setting": "[4]; 125 g ai/ha, 0 to 100 scale where 0 is no effect and 100 is complete control, read-out: Plant response rating, Foxtail, Giant", "value": 90, "unit": "%"}, {"measurement": "pest or weed control at 500 g/ha", "setting": "[4]; 500 g ai/ha, 0 to 100 scale, 0 no effect, 100 complete control, read-out: Plant response rating Foxtail, Giant", "value": 100, "unit": "%"}, {"measurement": "pest or weed control at 125 g/ha", "setting": "[5]; 125 g ai/ha, 0 to 100 scale where 0 is no effect and 100 is complete control, read-out: Plant response rating, Velvetleaf", "value": 100, "unit": "%"}, {"measurement": "pest or weed control at 500 g/ha", "setting": "[5]; 500 g ai/ha, 0 to 100 scale, 0 no effect, 100 complete control, read-out: Plant response rating Velvetleaf", "value": 100, "unit": "%"}, {"measurement": "Corn plant response rating (crop injury, 0 = no effect, 100 = complete kill) at 125 g/ha", "setting": "[6]; [15]", "value": 30, "unit": "%"}, {"measurement": "plant injury at 500 g/ha", "setting": "[6]; 500 g ai/ha, 0 to 100 scale, 0 no effect, 100 complete control, read-out: Plant response rating Corn", "value": 50, "unit": "%"}, {"measurement": "pest or weed control at 62 g/ha", "setting": "[7]; 62 g ai/ha, preemergence, scale 0 (no effect) to 100 (complete control), read-out: Lambsquarters plant response rating", "value": 80, "unit": "%"}, {"measurement": "pest or weed control at 125 g/ha", "setting": "[7]; 125 g ai/ha, preemergence, scale 0 (no effect) to 100 (complete control), read-out: Lambsquarters plant response rating", "value": 85, "unit": "%"}, {"measurement": "pest or weed control at 250 g/ha", "setting": "[7]; 250 g ai/ha, preemergence, scale 0 (no effect) to 100 (complete control), read-out: Lambsquarters plant response rating", "value": 95, "unit": "%"}, {"measurement": "pest or weed control at 31 g/ha", "setting": "[7]; Preemergence, 31 g ai/ha, scale 0 to 100, 0 no effect, 100 complete control, read-out: Plant response rating, Lambsquarters", "value": 80, "unit": "%"}, {"measurement": "pest or weed control at 62 g/ha", "setting": "[8]; 62 g ai/ha, preemergence, scale 0 (no effect) to 100 (complete control), read-out: Nutsedge, Yellow plant response rating", "value": 0, "unit": "%"}, {"measurement": "pest or weed control at 125 g/ha", "setting": "[8]; 125 g ai/ha, preemergence, scale 0 (no effect) to 100 (complete control), read-out: Nutsedge, Yellow plant response rating", "value": 15, "unit": "%"}, {"measurement": "pest or weed control at 250 g/ha", "setting": "[8]; 250 g ai/ha, preemergence, scale 0 (no effect) to 100 (complete control), read-out: Nutsedge, Yellow plant response rating", "value": 15, "unit": "%"}, {"measurement": "pest or weed control at 31 g/ha", "setting": "[8]; Preemergence, 31 g ai/ha, scale 0 to 100, 0 no effect, 100 complete control, read-out: Plant response rating, Nutsedge, Yellow", "value": 0, "unit": "%"}, {"measurement": "pest or weed control at 62 g/ha", "setting": "[9]; 62 g ai/ha, preemergence, scale 0 (no effect) to 100 (complete control), read-out: Pigweed plant response rating", "value": 100, "unit": "%"}, {"measurement": "pest or weed control at 125 g/ha", "setting": "[9]; 125 g ai/ha, preemergence, scale 0 (no effect) to 100 (complete control), read-out: Pigweed plant response rating", "value": 100, "unit": "%"}, {"measurement": "pest or weed control at 250 g/ha", "setting": "[9]; 250 g ai/ha, preemergence, scale 0 (no effect) to 100 (complete control), read-out: Pigweed plant response rating", "value": 100, "unit": "%"}, {"measurement": "pest or weed control at 31 g/ha", "setting": "[9]; Preemergence, 31 g ai/ha, scale 0 to 100, 0 no effect, 100 complete control, read-out: Plant response rating, Pigweed", "value": 100, "unit": "%"}, {"measurement": "pest or weed control at 62 g/ha", "setting": "[10]; 62 g ai/ha, preemergence, scale 0 (no effect) to 100 (complete control), read-out: Ragweed plant response rating", "value": 0, "unit": "%"}, {"measurement": "pest or weed control at 125 g/ha", "setting": "[10]; 125 g ai/ha, preemergence, scale 0 (no effect) to 100 (complete control), read-out: Ragweed plant response rating", "value": 5, "unit": "%"}, {"measurement": "pest or weed control at 250 g/ha", "setting": "[10]; 250 g ai/ha, preemergence, scale 0 (no effect) to 100 (complete control), read-out: Ragweed plant response rating", "value": 40, "unit": "%"}, {"measurement": "pest or weed control at 31 g/ha", "setting": "[10]; Preemergence, 31 g ai/ha, scale 0 to 100, 0 no effect, 100 complete control, read-out: Plant response rating, Ragweed", "value": 0, "unit": "%"}, {"measurement": "pest or weed control at 125 g/ha", "setting": "[11]; 125 g ai/ha, postemergence, read-out: Plant response rating (0 to 100), Galium", "value": 90, "unit": "%"}, {"measurement": "pest or weed control at 250 g/ha", "setting": "[11]; 250 g ai/ha, postemergence, read-out: Plant response rating (0 to 100), Galium", "value": 98, "unit": "%"}, {"measurement": "pest or weed control at 31 g/ha", "setting": "[11]; Postemergence, 31 g ai/ha, scale 0 to 100 (0 no effect, 100 complete control), 13 to 15 days, read-out: Plant response rating, Galium", "value": 65, "unit": "%"}, {"measurement": "pest or weed control at 62 g/ha", "setting": "[11]; Postemergence, 62 g ai/ha, scale 0 to 100 (0 no effect, 100 complete control), read-out: Plant response rating, Galium", "value": 80, "unit": "%"}, {"measurement": "pest or weed control at 125 g/ha", "setting": "[12]; 125 g ai/ha, postemergence, read-out: Plant response rating (0 to 100), Lambsquarters", "value": 98, "unit": "%"}, {"measurement": "pest or weed control at 250 g/ha", "setting": "[12]; 250 g ai/ha, postemergence, read-out: Plant response rating (0 to 100), Lambsquarters", "value": 98, "unit": "%"}, {"measurement": "pest or weed control at 31 g/ha", "setting": "[12]; Postemergence, 31 g ai/ha, scale 0 to 100 (0 no effect, 100 complete control), 13 to 15 days, read-out: Plant response rating, Lambsquarters", "value": 60, "unit": "%"}, {"measurement": "pest or weed control at 62 g/ha", "setting": "[12]; Postemergence, 62 g ai/ha, scale 0 to 100 (0 no effect, 100 complete control), read-out: Plant response rating, Lambsquarters", "value": 98, "unit": "%"}, {"measurement": "pest or weed control at 125 g/ha", "setting": "[13]; 125 g ai/ha, postemergence, read-out: Plant response rating (0 to 100), Morningglory", "value": 95, "unit": "%"}, {"measurement": "pest or weed control at 31 g/ha", "setting": "[13]; Postemergence, 31 g ai/ha, scale 0 to 100 (0 no effect, 100 complete control), 13 to 15 days, read-out: Plant response rating, Morningglory", "value": 75, "unit": "%"}, {"measurement": "pest or weed control at 62 g/ha", "setting": "[13]; Postemergence, 62 g ai/ha, scale 0 to 100 (0 no effect, 100 complete control), read-out: Plant response rating, Morningglory", "value": 80, "unit": "%"}, {"measurement": "pest or weed control at 125 g/ha", "setting": "[14]; 125 g ai/ha, postemergence, read-out: Plant response rating (0 to 100), Kochia", "value": 100, "unit": "%"}, {"measurement": "pest or weed control at 250 g/ha", "setting": "[14]; 250 g ai/ha, postemergence, read-out: Plant response rating (0 to 100), Kochia", "value": 100, "unit": "%"}, {"measurement": "pest or weed control at 31 g/ha", "setting": "[14]; Postemergence, 31 g ai/ha, scale 0 to 100 (0 no effect, 100 complete control), 13 to 15 days, read-out: Plant response rating, Kochia", "value": 98, "unit": "%"}, {"measurement": "pest or weed control at 62 g/ha", "setting": "[14]; Postemergence, 62 g ai/ha, scale 0 to 100 (0 no effect, 100 complete control), read-out: Plant response rating, Kochia", "value": 98, "unit": "%"}]}
